Reference: patent publication US4288609A, “Quaternary ammonium derivatives of adamantane with antimicrobic activity” (priority 1976, dated 1981)
Where two headings read alike, the source gives them in different places.

Experiments:
Pseudom.Aer. ATCC 1014 = test: M.I.C. in vitro, gram- Pseudom. Aer. (Table 1); assay type: cell-based, Pseudomonas Aeruginosa; details: for MIC: Pseudomonas aeruginosa, read-out: M.I.C.
How it was run: (§1)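 Broth dilution MIC: compound added to culture media pre-inoculated with a set number of organisms, incubated 24 or 48 h at 30 or 37 °C depending on the organism. Growth read visually; MIC expressed in γ/ml.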

Candida Albic. SKF 2270 = test: MIC yeasts, Candida albicans (Table 2); assay type: cell-based; details: for MIC: Sabourand broth; for activity on Candida albicans, times greater than that of cetyl pyridine chloride: in the absence of serum; for activity on Candida albicans, times higher than that of cetyl pyridine chloride: in the presence of 10% of horse serum
How it was run: (§2)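 Candida inoculum (10^3 cells/ml, from 24 h cultures at 30° C) in Sabouraud broth containing graded compound concentrations.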

[1] = test system: Candida Pseudotrop. ATCC 2512; test: MIC yeasts, Candida pseudotropicalis (Table 2); assay type: cell-based; details: Sabourand broth
How it was run: as §2

Pseudomonas Aeruginosa = test: Antibacterial activity in vivo with topical treatment (Table 5); parameters: species or system female CF1 albino mice; details: for animals alive on the 15th day / animals dead on the 15th day: 10 animals; for % survivors: topical, 15th day; for efficacy in vivo (in words): other concentrations considered
Description: After their backs have been shaved, female CF1 albino mice weighing 18-22 g are scorched (under ether anaesthetic) for 15 seconds with a pad of brass previously immersed in boiling water (7-8% of the body surface). After 90 minutes there is applied to the scorched area 0.1 ml of a suspension of Pseudomonas Aeruginosa bacteria having 15% transmittance at 650 nm. The bacterial strain in question produces a high incidence of mortality, induced by septicemic diffusion from the point of infection. After 90 minutes, with the aid of a glass rod suitably flattened at one end, the preparation containing a known concentration of the compound under examination is applied locally. The treatment is continued for a total of six days (once per day). On the fifteenth day the percentage of survivors to the tested doses in recorded.
The carrier used for applying the compounds under examination is an aqueous 0.75% solution of carboxymethyl-cellulose. The concentrations of the compounds tested are 2, 1, 0.5 and 0.25% by weight.

Trich. Foetus ISM 66/23 = test: MIC protozoa, Trichomonas foetus (Table 2); assay type: cell-based; details: +10% serum (head), Kupferberg Trichomonas broth with 5% of horse serum
How it was run: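 Test substance was added at set concentrations to Kupferberg Trichomonas broth with 5% horse serum, inoculated with T. vaginalis or T. foetus at 3.5% of medium volume. Growth was assessed after 24 or 48 h incubation at 30° or 37 °C. MIC is the minimum concentration inhibiting growth.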

Candida albicans = test: Activity upon vaginal candidiasis in mice (Table 7); assay type: in vivo, female Swiss mice (Charles River CD1); details: for proliferation index (individual): eighth day
Description: The treatment groups consist each of 8 female Swiss mice (Charles River CD1) of average weight 20 g. The animals are infected with 0.025 ml of a 24 hour culture of Candida albicans, equal to 10^6 cellules.
0.025 ml of a suspension in lanoline of the compound to be tested, at the desired concentration, are applied locally twice a day for a week, the first treatment being started five hours after infection.
The control group is treated with the lanoline alone in the same way. On the eighth day vaginal washings are carried out with 0.025 ml of sterile physiological solution, and the liquid is sown in Petri dishes containing Bacto Biggy Agon Difco as a selective growing medium for the Candida.
After 48 hours of incubation of the dishes at 30° C. a count is taken of the colonies which have grown. Assessment of the activity is quantized using the indices listed here below:
The results are expressed as percentages of the average index of seriousness of the infection A.D.I. (Average Degree of Infection) in the animals treated with respect to the animals in the control group.
The substances under examination were tested at concentrations of 5 and 3% by weight.

[2] = test system: gram+ and gram- bacterial strains; test: Activity in vitro on gram+ and gram- bacteria, overall; assay type: cell-based; details: gram positive and gram negative strains, low concentrations
Description: The method for evaluating the activity in vitro against bacteria, fungi and protozoa consists in introducing calculated quantities of the substance, the activity of which it is desired to test, into culture media already inoculated with a predetermined number of test germs.
After 24 or 48 hours of incubation at 30° or 37° C., according to the micro-organism being tested, it is possible to evaluate the growth of the same in the culture broth; in this manner the minimum concentration (M.I.C.) which inhibits the growth of the micro-organisms in vitro is determined.
In table 1 there are recorded the M.I.C. values in γ/ml of the products subject of the present invention, against certain gram+ and gram- bacterial strains, some of which are pathogenic towards human beings.

Diplococcus Pneum. ISM = test: M.I.C. in vitro, gram+ Diplococcus Pneum. (Table 1); assay type: cell-based; details: read-out: M.I.C.
How it was run: as §1

Proteus Vulc. ATCC 881 = test: M.I.C. in vitro, gram- Proteus Vulc. (Table 1); assay type: cell-based; details: read-out: M.I.C.
How it was run: as §1

Esch. Coli. SKF 12140 = test: M.I.C. in vitro, gram- Esch. Coli (Table 1); assay type: cell-based, Escherichia Coli; details: Escherichia coli, read-out: M.I.C.
How it was run: as §1

[3] = test system: Nicrosporum Canis ATCC 11621; test: MIC mildews, Microsporum canis (Table 2); assay type: cell-based; details: Sabourand broth
[4] = test system: Candida Albicans SKF 2270; test: Speed of sterilising action, Candida Albicans (Table 3); assay type: cell-based
Description: The strains, inoculants, culture broths and experimental methods are as already seen for calculating the M.I.C. in vitro. The antimicrobic substances were tested at concentrations of 0.1, 0.25, 0.5 and 1 g/l, the contact times taken into consideration are 0, 1, 2.5, 5, 7.5, 10, 15, 30 and 60 minutes.
The samples which at the 7th day of incubation still had no growth of micro-organisms which could be observed macroscopically and/or microscopically were considered sterile.
The results are recorded in Table 3 in terms of sterilization time expressed in minutes.

[5] = test system: Streptococ. Henclyt. 0203; test: M.I.C. in vitro, gram+ Streptococ. Henclyt. (Table 1); assay type: cell-based; details: for MIC: read-out: M.I.C.
How it was run: as §1

[6] = Microsporum canis, ATCC11621, +10% serum, read-out: MIC

## CCCCCCCCCC[N+](C)(C)CCOC(=O)C12CC3CC(CC(C3)C1)C2 (single isomer, unassigned) [Example 1, n-Decyl-dimethyl-(1-adamantane-carboxy)-ethyl-ammonium bromide]
Pseudom.Aer. ATCC 1014; ATCC1014, +10% serum
  MIC: 50 µg/mL
Pseudom.Aer. ATCC 1014; without serum
  M.I.C.: 20 µg/mL
Candida Albic. SKF 2270; +10% serum
  MIC: 10 µg/mL
Candida Albic. SKF 2270
  activity on Candida albicans, times greater than that of cetyl pyridine chloride: about 25 times
  activity on Candida albicans, times higher than that of cetyl pyridine chloride: 5-10 times
Candida Albic. SKF 2270; without serum
  MIC: 0.2 µg/mL
[1]; +10% serum
  MIC: 20 µg/mL
[1]; without serum
  MIC: < 0.1 µg/mL
Pseudomonas Aeruginosa; 0.25% by weight
  animals alive on the 15th day: 5
  animals dead on the 15th day: 5
  % survivors: 50%
Pseudomonas Aeruginosa; 0.5% by weight
  animals alive on the 15th day: 6
  animals dead on the 15th day: 4
Pseudomonas Aeruginosa; 1% by weight
  animals alive on the 15th day: 8
  animals dead on the 15th day: 2
  % survivors: 80%
Pseudomonas Aeruginosa; 2% by weight
  animals alive on the 15th day: 8
  animals dead on the 15th day: 2
  % survivors: 80%
Pseudomonas Aeruginosa
  efficacy in vivo (in words): secure efficacy
Trich. Foetus ISM 66/23
  MIC: 2 µg/mL
Candida albicans; 3% by weight
  % of healing (100-A.D.I. %): 63.03%
  A.D.I. (compared with controls): 36.97%
  average proliferation index (A.D.I): 0.88
Candida albicans; 5% by weight
  % of healing (100-A.D.I. %): 84.03%
  A.D.I. (compared with controls): 15.97%
  average proliferation index (A.D.I): 0.38
Candida albicans; mouse, in vivo
  no. of animals surviving: 8
  tolerance by vaginal mucous membrane: perfectly tolerated by very delicate tissues
  topical in vivo activity against Candida albicans (in words): excellent topical activity "in vivo" even against Candida albicans
[2]
  antibacterial activity (in words): powerful antibacterial activity at low concentrations
Diplococcus Pneum. ISM; +10% serum
  MIC: 5 µg/mL
Diplococcus Pneum. ISM; without serum
  MIC: 1 µg/mL
Proteus Vulc. ATCC 881; +10% serum
  MIC: 50 µg/mL
Proteus Vulc. ATCC 881; without serum
  MIC: 10 µg/mL
Esch. Coli. SKF 12140; +10% serum
  MIC: 50 µg/mL
Esch. Coli. SKF 12140; without serum
  MIC: 5 µg/mL
[3]; [6]
  MIC: 10 µg/mL
[3]; without serum
  MIC: 0.1 µg/mL
[4]; 0.1 g/l
  sterilization time: 30 min
[4]; 0.25 g/l
  sterilization time: 2.5 min
[4]; 0.5 g/l
  sterilization time: 1 min
[4]; 1 g/l
  sterilization time: 1 min
[5]; +10% serum
  M.I.C.: 0.1 µg/mL
[5]; without serum
  MIC: < 0.1 µg/mL

## CCCCCCCCCCCC[N+](C)(C)CCNC(=O)C12CC3CC(CC(C3)C1)C2 [Example 8]
Pseudom.Aer. ATCC 1014; ATCC1014, +10% serum
  MIC: 50 µg/mL
Pseudom.Aer. ATCC 1014; ATCC1014, without serum
  MIC: 10 µg/mL
Candida Albic. SKF 2270; Candida, +10% serum, read-out: MIC
  MIC: 20 µg/mL
Candida Albic. SKF 2270; Candida, without serum, read-out: MIC
  MIC: 0.2 µg/mL
Candida Albic. SKF 2270
  activity on Candida albicans, times greater than that of cetyl pyridine chloride: about 25 times
  activity on Candida albicans, times higher than that of cetyl pyridine chloride: 5-10 times
[1]; Candida, ATCC2512, +10% serum, read-out: MIC
  MIC: 20 µg/mL
[1]; Candida, ATCC2512, without serum, read-out: MIC
  MIC: < 0.1 µg/mL
Pseudomonas Aeruginosa; 0.25% by weight
  animals alive on the 15th day: 3
  animals dead on the 15th day: 7
  % survivors: 30%
Pseudomonas Aeruginosa; 0.5% by weight
  animals alive on the 15th day: 6
  animals dead on the 15th day: 5
  % survivors: 60%
Pseudomonas Aeruginosa; 1% by weight
  animals alive on the 15th day: 6
  animals dead on the 15th day: 4
  % survivors: 60%
Pseudomonas Aeruginosa; 2% by weight
  animals alive on the 15th day: 7
  animals dead on the 15th day: 3
  % survivors: 70%
Pseudomonas Aeruginosa
  efficacy in vivo (in words): secure efficacy
Trich. Foetus ISM 66/23; Tritrichomonas foetus, read-out: MIC
  MIC: 1 µg/mL
Candida albicans; 3% by weight
  % of healing (100-A.D.I. %): 63.03%
  A.D.I. (compared with controls): 36.97%
  average proliferation index (A.D.I): 0.88
  proliferation index (individual): 0-1-1-3-0-0-0-2
Candida albicans; 5% by weight
  % of healing (100-A.D.I. %): 78.99%
  A.D.I. (compared with controls): 21.01%
  average proliferation index (A.D.I): 0.50
  proliferation index (individual): 0-0-0-2-1-0-0-1
Candida albicans; 5% by weight, 8 animals
  no. of animals surviving: 2
Candida albicans; mice, local
  tolerance by vaginal mucous membrane: perfectly tolerated by very delicate tissues
Candida albicans; mouse, in vivo
  topical in vivo activity against Candida albicans (in words): excellent topical activity "in vivo" even against Candida albicans
[2]
  antibacterial activity (in words): powerful antibacterial activity at low concentrations
Diplococcus Pneum. ISM; +10% serum
  MIC: 5 µg/mL
Diplococcus Pneum. ISM; without serum
  MIC: 1 µg/mL
Proteus Vulc. ATCC 881; +10% serum
  MIC: 100 µg/mL
Proteus Vulc. ATCC 881; without serum
  MIC: 5 µg/mL
Esch. Coli. SKF 12140; +10% serum
  MIC: 100 µg/mL
Esch. Coli. SKF 12140; without serum
  MIC: 2 µg/mL
[3]; [6]
  MIC: 20 µg/mL
[3]; Microsporum canis, ATCC11621, without serum, read-out: MIC
  MIC: 0.1 µg/mL
[4]; 0.1 g/l
  sterilization time: 60 min
[4]; 0.25 g/l
  sterilization time: 15 min
[4]; 0.5 g/l
  sterilization time: 2.5 min
[4]; 1 g/l
  sterilization time: 2.5 min
[5]; +10% serum
  MIC: 1 µg/mL
[5]; without serum
  MIC: < 0.1 µg/mL
